Values quoted from earlier work in paper PMC2933614, “Quantitative in vitro and in vivo pharmacological profile of CE-178253, a potent and selective cannabinoid type 1 (CB1) Receptor Antagonist” (BMC Pharmacology, 2010).

Assays:
[1] = parameters: method as in PMID 12055133; conditions: 0.5 mg/kg; 2-AG-mediated hyperphagia; cited from earlier work
[2] = tested on: CB1 receptor; parameters: method as in PMID 17327489; conditions: cited from earlier work

Row | SMILES | Attenuation of FI [1] | Receptor occupancy required for maximal weight loss efficacy [2]
1 | Cc1c(C(=O)NN2CCCCC2)nn(-c2ccc(Cl)cc2Cl)c1-c1ccc(Cl)cc1 [SR141716A] | ~ 50% | 
2 | C[C@H](NC(=O)C(C)(C)Oc1ccc(C(F)(F)F)cn1)[C@@H](Cc1ccc(Cl)cc1)c1cccc(C#N)c1 [taranabant] |  | 60-90%
